Legend:
Experiment in all cases: relative viability (nuclei count vs DMSO), 5 days (fraction); higher = more cells survive
Omipalisib = compound: COc1ncc(-c2ccc3nccc(-c4ccnnc4)c3c2)cc1NS(=O)(=O)c1ccc(F)cc1F [Omipalisib]
Procedure, shortened: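 Vehicle-anchored 1536-well plates of lung cancer cell lines, held overnight at 37 °C, were pinned with five library-drug doses (not always all listed) spaced by √10. No medium change followed over the next 5 days, after which the cells were fixed, permeabilised and Hoechst-stained together and imaged at 4×. Nuclei were counted with MetaXpress, and viability is treated-well nuclei over vehicle-well nuclei, taken as a median across plates. Plates passed with control CV below 25% and at least one doubling.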

Omipalisib + Phenformin = compound: COc1ncc(-c2ccc3nccc(-c4ccnnc4)c3c2)cc1NS(=O)(=O)c1ccc(F)cc1F [Omipalisib] + N=C(N)NC(=N)NCCc1ccccc1 [Phenformin] (partner 250 µM)
Procedure, shortened: (§1)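 Lung cancer cell lines in 1536-well plates were dosed by pin tool the day after seeding, either with one drug alone or with a fixed anchor-drug dose plus five library-drug doses (not always all listed) in √10 steps. After 5 days, cells were fixed and their nuclei stained in one step (final 0.05% Triton X-100, 1% formaldehyde, 1 ug/ml Hoechst), then counted on 4× images. Relative viability is the nuclei count in treated wells divided by that in vehicle wells. Values are medians of duplicate plates.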

Omipalisib + AZD7762 = compound: COc1ncc(-c2ccc3nccc(-c4ccnnc4)c3c2)cc1NS(=O)(=O)c1ccc(F)cc1F [Omipalisib] + NC(=O)Nc1cc(-c2cccc(F)c2)sc1C(=O)N[C@H]1CCCNC1 [AZD7762] (partner 0.2 µM)
Procedure, shortened: as §1

Omipalisib + Olaparib = compound: COc1ncc(-c2ccc3nccc(-c4ccnnc4)c3c2)cc1NS(=O)(=O)c1ccc(F)cc1F [Omipalisib] + O=C(c1cc(Cc2n[nH]c(=O)c3ccccc23)ccc1F)N1CCN(C(=O)C2CC2)CC1 [Olaparib] (partner 8 µM)
Procedure, shortened: as §1

Omipalisib + Vorinostat = compound: COc1ncc(-c2ccc3nccc(-c4ccnnc4)c3c2)cc1NS(=O)(=O)c1ccc(F)cc1F [Omipalisib] + O=C(CCCCCCC(=O)Nc1ccccc1)NO [Vorinostat] (partner 1 µM)
Procedure, shortened: as §1

Omipalisib + Linsitinib = compound: COc1ncc(-c2ccc3nccc(-c4ccnnc4)c3c2)cc1NS(=O)(=O)c1ccc(F)cc1F [Omipalisib] + C[C@]1(O)C[C@@H](c2nc(-c3ccc4ccc(-c5ccccc5)nc4c3)c3c(N)nccn32)C1 [Linsitinib] (partner 1 µM)
Procedure, shortened: as §1

Cell Line	relative viability (Omipalisib; 0.0003 µM)	relative viability (Omipalisib; 0.003 µM)	relative viability (Omipalisib; 0.03 µM)	relative viability (Omipalisib + Phenformin; first compound 0.0003 µM)	relative viability (Omipalisib + Phenformin; first compound 0.003 µM)	relative viability (Omipalisib + Phenformin; first compound 0.03 µM)	relative viability (Omipalisib + AZD7762; first compound 0.0003 µM)	relative viability (Omipalisib + AZD7762; first compound 0.003 µM)	relative viability (Omipalisib + AZD7762; first compound 0.03 µM)	relative viability (Omipalisib + Olaparib; first compound 0.0003 µM)	relative viability (Omipalisib + Olaparib; first compound 0.003 µM)	relative viability (Omipalisib + Olaparib; first compound 0.03 µM)	relative viability (Omipalisib + Vorinostat; first compound 0.0003 µM)	relative viability (Omipalisib + Vorinostat; first compound 0.003 µM)	relative viability (Omipalisib + Vorinostat; first compound 0.03 µM)	relative viability (Omipalisib + Linsitinib; first compound 0.0003 µM)	relative viability (Omipalisib + Linsitinib; first compound 0.003 µM)	relative viability (Omipalisib + Linsitinib; first compound 0.03 µM)
NCI-H2170	0.813	0.608	0.587	0.459	0.432	0.375	0.684	0.376	0.375	0.534	0.456	0.226	0.716	0.51	0.418			
SK-LU-1	0.914	0.778	0.569	0.47	0.299	0.273				0.455	0.304	0.366	0.758	0.561	0.535	1.03	1	0.679
NCI-H650	0.876	0.745	0.51	0.443	0.401	0.332	0.817	0.766	0.7	0.366	0.33	0.245	0.325	0.337	0.186	0.76	0.689	0.47
LOU-NH91	0.999	0.784	0.65	0.738	0.522	0.504	0.772	0.566	0.515	0.909	0.852	0.617	1.02	0.679	0.582	0.876	0.717	0.512
LK-2	0.767	0.435	0.345	0.532	0.128	0.144	0.382	0.148	0.134	0.747	0.29	0.238	0.276	0.18	0.154	0.439	0.412	0.331
LC-2-ad	0.942	0.831	0.556	0.438	0.368	0.258	0.855	0.762	0.464	0.779	0.796	0.639	0.67	0.575	0.303	0.848	0.587	0.314
NCI-H2085	0.987	1.01	0.495	0.869	0.429	0.303	1.06	0.84	0.385	0.829	0.713	0.303	0.815	0.701	0.436	0.786	0.737	0.275
H3255	0.93	0.85	0.51	0.365	0.39	0.269	1	0.869	0.566	0.559	0.526	0.409	0.811	0.623	0.269	0.999	0.888	0.485
UMC-11	0.886	0.643	0.823	0.338	0.329	0.316				0.332	0.548	0.376	0.416	0.281	0.264	0.953	0.838	0.694
NCI-H1395	0.901	0.706	0.649	0.414	0.403	0.393	0.424	0.398	0.379	0.501	0.421	0.371	0.716	0.525	0.523	1.03	0.905	0.592
NCI-H1993	0.806	0.632	0.623	0.558	0.552	0.586	0.45	0.403	0.382	1.05	0.624	0.398	0.788	0.162	0.378	0.697	0.765	0.589
NCI-H1650	0.861	0.946	0.613	0.371	0.257	0.168				0.774	0.807	0.576	0.501	0.287	0.379			
ChaGo-K-1	0.978	0.917	0.919	0.486	0.401	0.406	0.899	0.811	0.836	0.455	0.38	0.399	0.732	0.619	0.675			
SW 1573	0.731	0.713	0.492	0.238	0.227	0.169				0.319	0.332	0.203	0.236	0.456	0.315	0.777	0.476	0.465
NCI-H661	1	0.923	0.82	0.264	0.264	0.224				0.744	0.659	0.604	0.78	0.782	0.785	0.389	0.439	0.234
NCI-H2009	1.06	1.02	0.755	0.511	0.487	0.316				0.705	0.511	0.378	0.674	0.689	0.573	1.13	1.18	0.946
SK-MES-1	0.927	0.607	0.452	0.66	0.618	0.428				0.674	0.52	0.26	1.02	0.739	0.526	1.02	0.785	0.69
NCI-H2023	0.847	0.535	0.203	0.379	0.275	0.164				0.428	0.414	0.185	0.356	0.454	0.161	0.513	0.342	0.234

From the supplement of paper PMC10307832
